Data on 10 compounds can be found in patent US11427548B2 (Arvinas Operations, Inc., priority 2015, dated 2022).

In experiment [1] the target is T1, Androgen Receptor (Homo sapiens, UniProt P10275).
T1 construct: endogenous in cells; host or cells: VCaP cells
T1 sequence (P10275 1-920): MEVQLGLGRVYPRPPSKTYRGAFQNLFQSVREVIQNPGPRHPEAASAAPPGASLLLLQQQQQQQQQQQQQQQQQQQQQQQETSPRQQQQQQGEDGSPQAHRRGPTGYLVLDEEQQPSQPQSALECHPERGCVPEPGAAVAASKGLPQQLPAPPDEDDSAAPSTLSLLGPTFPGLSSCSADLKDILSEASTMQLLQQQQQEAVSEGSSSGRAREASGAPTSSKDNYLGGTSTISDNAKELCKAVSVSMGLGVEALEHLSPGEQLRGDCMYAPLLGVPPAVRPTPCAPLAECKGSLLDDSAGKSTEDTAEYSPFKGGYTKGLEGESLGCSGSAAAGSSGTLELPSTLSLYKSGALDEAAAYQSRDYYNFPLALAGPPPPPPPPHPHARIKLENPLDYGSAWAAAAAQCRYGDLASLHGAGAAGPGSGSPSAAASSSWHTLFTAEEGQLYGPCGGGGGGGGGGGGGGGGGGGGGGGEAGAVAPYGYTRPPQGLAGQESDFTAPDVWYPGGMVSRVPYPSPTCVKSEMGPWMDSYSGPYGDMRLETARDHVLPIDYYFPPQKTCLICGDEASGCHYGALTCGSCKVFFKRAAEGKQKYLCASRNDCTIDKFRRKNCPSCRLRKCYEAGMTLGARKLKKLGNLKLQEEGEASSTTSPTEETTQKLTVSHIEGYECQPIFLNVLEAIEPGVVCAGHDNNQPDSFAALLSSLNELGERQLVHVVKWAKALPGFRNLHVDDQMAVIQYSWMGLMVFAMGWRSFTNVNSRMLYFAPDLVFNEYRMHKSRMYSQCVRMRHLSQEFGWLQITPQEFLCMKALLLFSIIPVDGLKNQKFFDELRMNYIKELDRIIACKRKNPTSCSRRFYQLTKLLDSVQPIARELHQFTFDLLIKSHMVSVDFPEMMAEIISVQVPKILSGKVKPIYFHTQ
Description: Androgen Receptor ELISA assay (PathScan AR ELISA) in VCaP cells: AR degradation, Dmax and DC50. It is filed as cell-based. To be noted: for Dmax: VCaP, read-out: VCaP Dmax (%); for DC50: read-out: VCaP DC50, concentration that caused 50% Androgen Receptor degradation, VCaP cells. Put shortly: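 After 24 h exposure of VCaP cells (charcoal-stripped serum, 0.1 nM R1881 agonist, 0.1% DMSO) to seven half-log compound concentrations, residual AR in lysates was measured by PathScan ELISA (TMB absorbance, 450 nm). Cells were plated at 30,000/well and grown at least 3 days beforehand.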

Experiment [2] has as its target T2, Androgen Receptor (Homo sapiens, UniProt P10275+P40337, T878A).
T2 construct: Compounds have been evaluated in this assay in LNCaP and/or VCaP cells utilizing similar protocols; endogenous in cells; host or cells: LNCaP cells
As to the kind of experiment: Androgen Receptor ELISA assay (PathScan AR ELISA) in LNCaP cells: AR degradation, Dmax and DC50. To be noted: for DC50: concentration that caused 50% Androgen Receptor degradation; for Dmax: highest percentage of Androgen Receptor degradation observed. It is filed as cell-based.

T2 sequence (P10275 whole entry T878A): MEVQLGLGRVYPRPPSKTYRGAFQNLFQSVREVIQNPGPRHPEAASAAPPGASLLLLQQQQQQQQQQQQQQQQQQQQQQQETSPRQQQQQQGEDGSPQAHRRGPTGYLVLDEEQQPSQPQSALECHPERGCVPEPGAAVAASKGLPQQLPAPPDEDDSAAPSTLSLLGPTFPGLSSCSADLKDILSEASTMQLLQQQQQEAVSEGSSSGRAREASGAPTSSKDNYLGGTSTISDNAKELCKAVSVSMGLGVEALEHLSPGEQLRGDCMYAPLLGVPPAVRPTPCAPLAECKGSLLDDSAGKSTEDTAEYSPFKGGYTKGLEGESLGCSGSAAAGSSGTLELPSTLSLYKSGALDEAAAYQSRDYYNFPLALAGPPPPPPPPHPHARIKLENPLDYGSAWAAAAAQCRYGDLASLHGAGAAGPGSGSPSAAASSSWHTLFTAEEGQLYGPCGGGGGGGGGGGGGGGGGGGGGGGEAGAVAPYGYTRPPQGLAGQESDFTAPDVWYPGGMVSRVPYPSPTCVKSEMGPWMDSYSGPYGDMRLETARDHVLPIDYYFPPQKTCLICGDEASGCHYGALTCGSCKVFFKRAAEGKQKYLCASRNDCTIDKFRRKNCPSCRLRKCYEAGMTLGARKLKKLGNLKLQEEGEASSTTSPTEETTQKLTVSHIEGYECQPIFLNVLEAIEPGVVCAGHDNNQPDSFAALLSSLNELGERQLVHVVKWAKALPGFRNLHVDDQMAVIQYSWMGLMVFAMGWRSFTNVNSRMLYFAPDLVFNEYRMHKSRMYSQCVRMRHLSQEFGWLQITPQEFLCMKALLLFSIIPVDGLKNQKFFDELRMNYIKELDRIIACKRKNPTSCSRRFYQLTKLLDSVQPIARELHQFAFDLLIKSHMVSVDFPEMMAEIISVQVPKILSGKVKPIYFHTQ
T2 sequence (P40337 whole entry): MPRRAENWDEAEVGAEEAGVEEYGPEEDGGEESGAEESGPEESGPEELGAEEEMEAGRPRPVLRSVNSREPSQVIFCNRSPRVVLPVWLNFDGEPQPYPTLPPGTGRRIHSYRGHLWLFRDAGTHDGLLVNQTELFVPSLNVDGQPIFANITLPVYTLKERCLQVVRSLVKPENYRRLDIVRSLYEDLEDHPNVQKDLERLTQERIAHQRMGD
T2 sequence (Q15369 whole entry partner): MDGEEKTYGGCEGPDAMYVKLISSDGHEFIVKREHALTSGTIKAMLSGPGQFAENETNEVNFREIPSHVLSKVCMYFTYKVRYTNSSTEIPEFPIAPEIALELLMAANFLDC
T2 sequence (Q15370 whole entry partner): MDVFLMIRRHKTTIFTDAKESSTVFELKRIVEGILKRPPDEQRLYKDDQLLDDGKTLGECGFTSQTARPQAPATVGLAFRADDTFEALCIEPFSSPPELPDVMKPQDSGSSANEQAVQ

Consider `Cc1ncsc1-c1ccc(CNC(=O)[C@@H]2C[C@@H](O)CN2C(=O)[C@@H](NC(=O)COCCCCOCCCOc2ccc(N3C(=S)N(c4ccc(C#N)c(C(F)(F)F)c4)C(=O)C3(C)C)cc2)C(C)(C)C)cc1` [Example 52, (2S,4R)-1-[(2S)-2-(2-{4-[3-(4-{3-[4-cyano-3-(trifluoromethyl)phenyl]-5,5-dimethyl-4-oxo-2-sulfanylideneimidazolidin-1-yl}phenoxy)propoxy]butoxy}acetamido)-3,3-dimethylbutanoyl]-4-hydroxy-N-{[4-(4-methyl-1,3-thiazol-5-yl)phenyl]methyl}pyrrolidine-2-carboxamide], for which, in experiment [1], the Dmax was more than 71% and the DC50 was less than 50 nM. In experiment [2], the DC50 is less than 50 nM and the Dmax is more than 71%.

Consider `Cc1ncsc1-c1ccc(CNC(=O)[C@@H]2C[C@@H](O)CN2C(=O)[C@@H](NC(=O)COCC#CC#CCOc2ccc(N3C(=S)N(c4ccc(C#N)c(C(F)(F)F)c4)C(=O)C3(C)C)cc2)C(C)(C)C)cc1` [Example 54, (2S,4R)-1-((S)-2-(2-(6-(4-(3-(4-cyano-3-(trifluoromethyl)phenyl)-5,5-dimethyl-4-oxo-2-thioxoimidazolidin-1-yl)phenoxy)hexa-2,4-diynyloxy)acetamido)-3,3-dimethylbutanoyl)-4-hydroxy-N-(4-(4-methylthiazol-5-yl)benzyl)pyrrolidine-2-carboxamide], for which, in experiment [1], the Dmax is more than 71%. In addition, in experiment [2], the DC50 was more than 501 nM and the Dmax is less than 25%.

As for `Cc1ncsc1-c1ccc(CNC(=O)[C@@H]2C[C@@H](O)CN2C(=O)[C@@H](NC(=O)CCOCC#CC#CCOc2ccc(N3C(=S)N(c4ccc(C#N)c(C(F)(F)F)c4)C(=O)C3(C)C)cc2)C(C)(C)C)cc1` [Example 55, (2S,4R)-1-[(2S)-2-(3-{[6-(4-{3-[4-cyano-3-(trifluoromethyl)phenyl]-5,5-dimethyl-4-oxo-2-sulfanylideneimidazolidin-1-yl}phenoxy)hexa-2,4-diyn-1-yl]oxy}propanamido)-3,3-dimethylbutanoyl]-4-hydroxy-N-{[4-(4-methyl-1,3-thiazol-5-yl)phenyl]methyl}pyrrolidine-2-carboxamide], in experiment [1], the Dmax is 51 to 70%. In experiment [2], this compound had a DC50 of more than 501 nM and a Dmax of 26 to 50%.

For `Cc1ncsc1-c1ccc(CNC(=O)[C@@H]2C[C@@H](O)CN2C(=O)[C@@H](NC(=O)CCCOCC#CC#CCOc2ccc(N3C(=S)N(c4ccc(C#N)c(C(F)(F)F)c4)C(=O)C3(C)C)cc2)C(C)(C)C)cc1` [Example 56, (2S,4R)-1-[(2S)-2-(4-{[6-(4-{3-[4-cyano-3-(trifluoromethyl)phenyl]-5,5-dimethyl-4-oxo-2-sulfanylideneimidazolidin-1-yl}phenoxy)hexa-2,4-diyn-1-yl]oxy}butanamido)-3,3-dimethylbutanoyl]-4-hydroxy-N-{[4-(4-methyl-1,3-thiazol-5-yl)phenyl]methyl}pyrrolidine-2-carboxamide], the Dmax in experiment [1] was less than 25%; in experiment [2], 26 to 50%. In experiment [2], this compound gave a DC50 of more than 501 nM.

Consider `Cc1ncsc1-c1ccc(CNC(=O)[C@@H]2C[C@@H](O)CN2C(=O)[C@@H](NC(=O)COCCCCCNC(=O)CCCc2ccc(N3C(=S)N(c4ccc(C#N)c(C(F)(F)F)c4)C(=O)C3(C)C)cc2)C(C)(C)C)cc1` [Example 63, (2S,4R)-1-[(2S)-2-[2-({5-[4-(4-{3-[4-cyano-3-(trifluoromethyl)phenyl]-5,5-dimethyl-4-oxo-2-sulfanylideneimidazolidin-1-yl}phenyl)butanamido]pentyl}oxy)acetamido]-3,3-dimethylbutanoyl]-4-hydroxy-N-{[4-(4-methyl-1,3-thiazol-5-yl)phenyl]methyl}pyrrolidine-2-carboxamide], for which, in experiment [1], the Dmax lay within 26 to 50% and the DC50 was less than 50 nM. In experiment [2], the DC50 lay within 51 to 500 nM and the Dmax was more than 71%.

With `Cc1ncsc1-c1ccc(CNC(=O)[C@@H]2C[C@@H](O)CN2C(=O)[C@@H](NC(=O)COCCCCCN(C)C(=O)CCCc2ccc(N3C(=S)N(c4ccc(C#N)c(C(F)(F)F)c4)C(=O)C3(C)C)cc2)C(C)(C)C)cc1` [Example 65, (2S,4R)-1-[(2S)-2-[2-({5-[4-(4-{3-[4-cyano-3-(trifluoromethyl)phenyl]-5,5-dimethyl-4-oxo-2-sulfanylideneimidazolidin-1-yl}phenyl)-N-methylbutanamido]pentyl}oxy)acetamido]-3,3-dimethylbutanoyl]-4-hydroxy-N-{[4-(4-methyl-1,3-thiazol-5-yl)phenyl]methyl}pyrrolidine-2-carboxamide], the Dmax in experiment [1] and in experiment [2] was 51 to 70% throughout. Moreover, the results for the DC50 in experiment [1] and in experiment [2] were less than 50 nM and 51 to 500 nM, respectively.

With `Cc1ncsc1-c1ccc(CNC(=O)[C@@H]2C[C@@H](O)CN2C(=O)[C@@H](NC(=O)OCCOCCOc2ccc(-c3ccc(N4C(=S)N(c5ccc(C#N)c(C(F)(F)F)c5)C(=O)C4(C)C)cc3)cc2)C(C)(C)C)cc1` [Example 66, 2-(2-(4′-(3-(4-cyano-3-(trifluoromethyl)phenyl)-5,5-dimethyl-4-oxo-2-thioxoimidazolidin-1-yl)biphenyl-4-yloxy)ethoxy)ethyl (S)-1-((2S,4R)-4-hydroxy-2-(4-(4-methylthiazol-5-yl)benzylcarbamoyl)pyrrolidin-1-yl)-3,3-dimethyl-1-oxobutan-2-ylcarbamate], in experiment [1], the Dmax fell in the range of 26 to 50% and the DC50 was in the range of 51 to 500 nM. In experiment [2], the DC50 lay within 51 to 500 nM and the Dmax was in the range of 51 to 70%.

Turning to `Cc1ncsc1-c1ccc(CNC(=O)[C@@H]2C[C@@H](O)CN2C(=O)[C@@H](NC(=O)COCCOCCOc2ccc(-c3ccc(N4C(=S)N(c5ccc(C#N)c(C(F)(F)F)c5)C(=O)C4(C)C)cc3)cc2)C(C)(C)C)cc1` [Example 67, (2S,4R)-1-((S)-2-(2-(2-(2-(4′-(3-(4-cyano-3-(trifluoromethyl)phenyl)-5,5-dimethyl-4-oxo-2-thioxoimidazolidin-1-yl)biphenyl-4-yloxy)ethoxy)ethoxy)acetamido)-3,3-dimethylbutanoyl)-4-hydroxy-N-(4-(4-methylthiazol-5-yl)benzyl)pyrrolidine-2-carboxamide], in experiment [1], the Dmax lay within 26 to 50% and the DC50 was less than 50 nM. Besides, in experiment [2], the DC50 was less than 50 nM and the Dmax was more than 71%.

Turning to `Cc1ncsc1-c1ccc(CNC(=O)[C@@H]2C[C@@H](O)CN2C(=O)[C@@H](NC(=O)CCCCOc2ccc(-c3ccc(N4C(=S)N(c5ccc(C#N)c(C(F)(F)F)c5)C(=O)C4(C)C)cc3)cc2)C(C)(C)C)cc1` [Example 69, (2S,4R)-1-[(2S)-2-{5-[4-(4-{3-[4-cyano-3-(trifluoromethyl)phenyl]-5,5-dimethyl-4-oxo-2-sulfanylideneimidazolidin-1-yl}phenyl)phenoxy]pentanamido}-3,3-dimethylbutanoyl]-4-hydroxy-N-{[4-(4-methyl-1,3-thiazol-5-yl)phenyl]methyl}pyrrolidine-2-carboxamide], the Dmax in experiment [1] was 26 to 50%; in experiment [2] it was more than 71%. In addition, the DC50 in experiment [1] and in experiment [2] was 51 to 500 nM each time.

As to `Cc1ncsc1-c1ccc(CNC(=O)[C@@H]2C[C@@H](O)CN2C(=O)[C@@H](NC(=O)CCOCCOc2ccc(-c3ccc(N4C(=S)N(c5ccc(C#N)c(C(F)(F)F)c5)C(=O)C4(C)C)cc3)cc2)C(C)(C)C)cc1` [Example 70, (2S,4R)-1-[(2S)-2-(3-{2-[4-(4-{3-[4-cyano-3-(trifluoromethyl)phenyl]-5,5-dimethyl-4-oxo-2-sulfanylideneimidazolidin-1-yl}phenyl)phenoxy]ethoxy}propanamido)-3,3-dimethylbutanoyl]-4-hydroxy-N-{[4-(4-methyl-1,3-thiazol-5-yl)phenyl]methyl}pyrrolidine-2-carboxamide], in experiment [1], the Dmax lay in the range of 26 to 50% and the DC50 is less than 50 nM. In addition, in experiment [2], the DC50 was less than 50 nM and the Dmax is more than 71%.
